Here are results for two compounds from patent US20070161623A1, “Urea derivatives” (MERCK PATENT GMBH, priority 2004, published 2007).

The term IC50 denotes the concentration that gives 50% inhibition. Low values mean higher potency, high ones lower potency.

This assay deals with FXa (Homo sapiens, UniProt P00742). Put plainly: Factor Xa inhibition (FXa-IC50). In kind it is biochemical. The text has this:
The inhibition of factor Xa by the compounds according to the invention and the measurement of the anticoagulant and antithrombotic activity can be determined by conventional in-vitro or in-vivo methods. A suitable method is described, for example, by J. Hauptmann et al. in Thrombosis and Haemostasis 1990, 63, 220-223.
The inhibition of factor Xa can be measured, for example by the method of T. Hara et al. in Thromb. Haemostas. 1994, 71, 314-319.

Chain of FXa (P00742 235-488 limits assumed): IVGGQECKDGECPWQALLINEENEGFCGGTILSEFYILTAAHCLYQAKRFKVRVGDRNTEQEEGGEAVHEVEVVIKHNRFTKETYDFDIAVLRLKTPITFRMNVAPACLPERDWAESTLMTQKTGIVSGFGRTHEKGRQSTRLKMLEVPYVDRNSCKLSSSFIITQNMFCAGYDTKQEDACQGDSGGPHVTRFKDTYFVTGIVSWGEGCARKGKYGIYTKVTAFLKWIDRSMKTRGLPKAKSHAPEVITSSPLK
Chain of FXa (P00742 41-179 limits assumed): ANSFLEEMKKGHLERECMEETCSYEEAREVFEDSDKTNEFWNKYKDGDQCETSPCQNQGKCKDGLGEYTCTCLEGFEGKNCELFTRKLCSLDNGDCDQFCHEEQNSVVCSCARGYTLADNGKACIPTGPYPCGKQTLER

`Cc1cc(NC(=O)Nc2cc(O)ccc2NC(=O)Nc2ccc(Cl)cc2)ccc1N1CCOCC1=O` [Compound A1, 1-(4-chlorophenyl)-3-(4-hydroxy-2-{3-[3-methyl-4-(3-oxo-morpholin-4-yl)phenyl]ureido}phenyl)urea]: the IC50 came to 12 nM. This lies in the double-digit nanomolar range.

On to `Cc1cc(NC(=O)Nc2ccncc2NC(=O)Nc2ccc(Cl)cc2)ccc1N1CCOCC1=O` [Compound B0, 1-(4-Chlorophenyl)-3-(4-{3-[3-methyl-4-(3-oxomorpholin-4-yl)-phenyl]ureido}pyridin-3-yl)urea], for which the IC50 is 420 nM.
